Experimental data published in publication PMC5117899 (Cell chemical biology, 2016).

Molecular target: T1, AcnA (Staphylococcus aureus, UniProt Q2FYS9)
T1 sequence (Q2FYS9 1-901): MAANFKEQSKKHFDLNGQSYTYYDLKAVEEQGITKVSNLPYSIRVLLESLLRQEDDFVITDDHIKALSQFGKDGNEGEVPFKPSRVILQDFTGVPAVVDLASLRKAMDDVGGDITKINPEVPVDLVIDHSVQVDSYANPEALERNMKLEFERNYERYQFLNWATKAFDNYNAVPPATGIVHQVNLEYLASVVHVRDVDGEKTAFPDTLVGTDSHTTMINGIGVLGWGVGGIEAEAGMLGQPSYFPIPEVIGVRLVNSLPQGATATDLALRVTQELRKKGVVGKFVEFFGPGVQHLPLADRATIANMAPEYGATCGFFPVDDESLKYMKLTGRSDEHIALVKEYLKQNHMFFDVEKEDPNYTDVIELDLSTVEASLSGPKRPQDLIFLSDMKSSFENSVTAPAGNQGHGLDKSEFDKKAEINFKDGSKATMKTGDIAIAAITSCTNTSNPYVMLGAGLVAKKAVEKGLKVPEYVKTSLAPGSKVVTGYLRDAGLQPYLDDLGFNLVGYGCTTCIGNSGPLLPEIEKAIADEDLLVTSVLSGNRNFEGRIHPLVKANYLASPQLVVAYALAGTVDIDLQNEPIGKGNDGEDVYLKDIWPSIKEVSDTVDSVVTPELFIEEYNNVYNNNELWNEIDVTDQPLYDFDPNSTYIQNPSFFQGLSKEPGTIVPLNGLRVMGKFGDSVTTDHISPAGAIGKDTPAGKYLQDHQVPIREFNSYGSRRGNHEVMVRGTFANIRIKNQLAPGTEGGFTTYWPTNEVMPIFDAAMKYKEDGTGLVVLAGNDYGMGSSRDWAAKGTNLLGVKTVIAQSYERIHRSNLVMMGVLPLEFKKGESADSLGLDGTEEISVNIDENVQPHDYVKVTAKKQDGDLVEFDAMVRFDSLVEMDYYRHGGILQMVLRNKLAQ
Assay: spectrophotometric, cis-aconitate formation at […] nm
Assay type: biochemical
Settings: Fe-S cluster reconstituted in vitro

SMILES: O=C(O)C[C@H](C(=O)O)[C@@H](O)C(=O)O [isocitrate]
- spectrophotometric, cis-aconitate formation at 240 nm: purified AcnA was determined by monitoring the conversion of isocitrate to cis-aconitate spectrophotometrically
